{
  "source": "patent US8691874B2",
  "about": "“Treatment of ophthalmic disorders using urea” (Kato Pharmaceuticals, Inc., priority 2000, dated 2014)",
  "key": {"[1]": {"tested_on": "human patients with single or multiple retinal tears", "assay": "Intravitreal urea 3 days before pneumatic Retinopexy in patients with retinal tears (Example I)", "assay_type": "in vivo", "description": "All patients received pneumatic Retinopexy treatment 3 days after intravitreal injection of 1.5 mg of urea in 50 μl of aqueous solution prepared according to the formulation set forth in Table 11 above. […] Within 3-7 days after urea injection, 11/12 patients had developed PVD, only 1/12 patients had not developed PVD. Within 90 days of the urea injection that one patient also developed PVD.\nWithin 3 days of treatment 9/12 patients had complete retinal reattachment and macular attachment, and within 7 days all 12 patients had complete retinal reattachment and macular attachment.\n(Tornambe, P. E. et. al. Opthalmology, 1989; 96: 772-783)."}, "[2]": {"tested_on": "stage 3 idiopathic macular hole patient", "assay": "Intravitreal urea followed by C3F8 gas in a patient with idiopathic macular hole (Example II)", "assay_type": "in vivo, human", "conditions": "for visual acuity: baseline 20/400; for size of the macular hole: baseline 450 μm", "description": "The macular defect was classified as a stage 3 macular hole, and the patient's visual acuity was recorded at 20/400 at a baseline time point prior to urea treatment. […] Seven days after the intravitreal urea injection the patient was administered an intravitreal injection of 0.3 ml of expandable gas (C3F8).\nOne week after administration of the gas, the size of the macular hole had decreased from 450 μm to a smaller size of 200 μm and the patient's vision had improved from a baseline visual acuity of 20/400 to 20/80. Two weeks post treatment the size of the macular hole had decreased from 450 μm to a smaller size of 90 μm and the patient's vision had improved from a baseline visual Acuity of 20/400 to 20/70. Four weeks post treatment the size of the macular hole had decreased from 450 μm to a smaller size of 60 μm and the patient's vision had improved from a baseline visual acuity of 20/400 to 20/60."}, "[3]": {"tested_on": "human patients with diabetes-related nonclearing vitreous hemorrhage", "assay": "Treatment of vitreous hemorrhage (Example IV)", "assay_type": "in vivo", "description": "The formulations and treatments disclosed herein are also effective to treat vitreous hemorrhage. In this example, seven human patients were treated for diabetes-related nonclearing vitreous hemorrhage. Each patient received a single intravitreal injection of 100 μl of a formulation containing urea. The formulation used in this example contained 6% urea, 0.9% sodium chloride, and sterile water for injection (qs 100%)."}, "[4]": {"tested_on": "human patients requiring pars plana vitrectomy", "assay": "Intravitreal urea as adjunct to vitrectomy (Example V)", "assay_type": "in vivo", "description": "In this example, five human patients requiring pars plana vitrectomy for various indications were treated one week prior to vitrectomy with a single intravitreal injection of 100 μl of a urea in aqueous solution. The formulation contained 6% urea, 0.9% sodium chloride, and sterile water for injection (qs 100%). All patients underwent routine vitrectomies 8 to 10 days after the urea injection. The minimum waiting time between the urea injection and the vitrectomy procedure is about 1 day to 3 days.\nNo vitrectomy cutter was used."}, "[5]": {"tested_on": "patients with nonproliferative diabetic retinopathy", "assay": "Treatment of nonproliferative diabetic retinopathy (Example VI)", "assay_type": "in vivo, human", "description": "Sixty-nine patients with nonproliferative diabetic retinopathy were each administered a single intravitreal injection of 50 μl of a urea formulation containing 3% urea, 0.9% sodium chloride, and sterile water for injection.\nThe vitreous liquefaction and vitreous collapse in nonproliferative diabetic retinopathy patients would inhibit the growth and proliferation of the blood vessels, and thus inhibit the progression of diabetic retinopathy. All 69 (of the) patients were followed for six months following the procedure."}, "[6]": {"tested_on": "human patients with retinitis pigmentosa", "assay": "Double masked placebo controlled dose escalation study in retinitis pigmentosa (Example VII)", "assay_type": "in vivo", "description": "A double masked placebo controlled, randomized, dose escalation study was done in 32 human patients with retinitis pigmentosa. All patients were treated with a single intravitreal injection of 50 μl of a urea-containing formulation. Three groups of patients received different concentrations of urea. One group received a formulation containing 1.5% urea, 0.9% sodium chloride, and sterile water for injection. A second group received an identical formulation except the formulation contained 3.0% urea. A third group received an identical formulation except the formulation contained 6.0% urea. A placebo group received 50 μl of 0.9% sodium chloride.\nForty-seven percent of the patient reported an increase of at least 3 lines of best corrected visual acuity measured by ETDRS charts, whereas, only 14% of the placebo patients reported an increase of at least 3 lines of best corrected visual acuity measured by ETDRS charts.\nThere was no dramatic increase in the visual field of the placebo control patients."}, "[7]": {"tested_on": "human patients with optic nerve damage caused by trauma and/or glaucoma", "assay": "Double masked placebo controlled dose escalation study in optic nerve damage (Example VIII)", "assay_type": "in vivo", "description": "In accordance with the present invention, urea, thiourea, guanidine and possibly the other compounds of General Formula I above are effective to treat neuropathies (e.g., disorders or damage to nerves). In this example, 33 non sighted patients with optic nerve damage caused by trauma and/or glaucoma, with visual acuity of light perception or no light perception were administered a urea-containing formulation, as disclosed herein. The study was a double masked placebo controlled, randomized, dose escalation study conducted with 33 human patients with optic nerve damage. Patients were randomized into 5 groups, Group 1 of 5 patients, Group 2 of 4 patients, Group 3 of 8 patients, Group 4 of 8 patients and Group 5 of 8 patients. Each patient received a single intravitreal injection of 50 μl of an aqueous treatment solution, as follows:\nIn Six patients the vision improved from No light perception to light perception, in 2 patients the vision improved from light perception to count fingers at 12 inches, in 2 patients the vision improved from no light perception to 20/400 and 20/800 vision and in 2 patients the vision improved from light perception to 20/600 and 20/800 vision. No patients in the placebo group reported any improvement in best corrected visual acuity as measured by ETDRS charts."}, "[8]": {"tested_on": "patients with optic nerve damage related to optic nerve tumors", "assay": "Treatment of optic nerve damage related to optic nerve tumors (Example VIII)", "assay_type": "in vivo, human", "description": "In another study, three patients with long standing (6 months or longer) optic nerve damage related to optic nerve tumors were treated with a single intravitreal injection of 100 μl of a 6% urea containing formulation. All three patient treated reported a significant improvement in visual acuity after treatment. The patients' visual acuity improved from an average of Count Fingers at 12 inches to 20/200."}, "[9]": {"tested_on": "vitreous body of patients", "assay": "Injection of urea into the vitreous, slit lamp biomicroscopy in patients", "assay_type": "in vivo, human", "excerpt": "(§1) In addition, disinsertion of the posterior vitreous has been observed in patients by the use of slit lamp biomicroscopy and in rabbits by specialized histological techniques after urea treatment."}, "[10]": {"tested_on": "posterior vitreous of rabbits", "assay": "Injection of urea into the vitreous, specialized histological techniques in rabbits", "assay_type": "in vivo", "conditions": "after urea treatment", "excerpt": "as §1"}, "[11]": {"conditions": "10% water solution; cited from earlier work"}, "[12]": {"conditions": "cited from earlier work"}, "[13]": {"conditions": "cited from earlier work", "remark": "listed apart in the source"}, "[14]": {"conditions": "one week after administration of the gas"}},
  "note": "Where “and” joins values, the source holds several entries; their conditions need not be identical. Equal values may be shown once. Read-outs that look alike come from different tables or passages of the source.",
  "data": [
    {"compound": "NC(N)=O", "note": "[urea]", "values": [
      {"measurement": "adverse effects of the intravitreal injection, ophthalmoscopic and biomicroscopic examination", "setting": "[1]; 1.5 mg urea in 50 μl intravitreal, 12 patients", "value": "no adverse effects"},
      {"measurement": "average improvement of visual acuity per patient", "setting": "[1]; 6 months after Retinopexy", "value": "4.2 lines and 21 letters"},
      {"measurement": "patients with improvement of more than 2 lines of visual acuity (11 letters)", "setting": "[1]; 6 months post Retinopexy", "value": 64, "unit": "%"},
      {"measurement": "occurrence of new retinal tears with associated retinal detachment", "setting": "[1]; 90 days follow up", "value": "none of the patients"},
      {"measurement": "time by which the one remaining patient developed PVD", "setting": "[1]; after urea injection, 1.5 mg in 50 μl", "value": "≤ 90", "unit": "days"},
      {"measurement": "patients with improvement of more than 2 lines of visual acuity (11 letters)", "setting": "[1]; urea 3 days prior to pneumatic Retinopexy, time point not given", "value": 64, "unit": "%"},
      {"measurement": "patients who had developed PVD", "setting": "[1]; within 3-7 days after urea injection, 1.5 mg in 50 μl", "value": "11/12"},
      {"measurement": "patients with complete retinal reattachment and macular attachment", "setting": "[1]; within 3 days of treatment", "value": "9/12"},
      {"measurement": "patients with complete retinal reattachment and macular attachment", "setting": "[1]; within 7 days", "value": 12, "unit": "patients"},
      {"measurement": "adverse effects of the intravitreal injection, ophthalmoscopic and biomicroscopic examination", "setting": "[2]; 1.5 mg urea in 50 μl", "value": "no adverse effects"},
      {"measurement": "visual acuity", "setting": "[2]; four weeks post treatment", "value": "20/60"},
      {"measurement": "size of the macular hole", "setting": "[2]; four weeks post treatment", "value": 60, "unit": "μm"},
      {"measurement": "visual acuity", "setting": "[2]; [14]", "value": "20/80"},
      {"measurement": "size of the macular hole", "setting": "[2]; [14]", "value": 200, "unit": "μm"},
      {"measurement": "time to complete Posterior Vitreous Detachment (PVD)", "setting": "[2]; single intravitreal 1.5 mg urea in 50 μl, Table III formulation", "value": "≤ 7", "unit": "days"},
      {"measurement": "visual acuity", "setting": "[2]; two weeks post treatment", "value": "20/70"},
      {"measurement": "size of the macular hole", "setting": "[2]; two weeks post treatment", "value": 90, "unit": "μm"},
      {"measurement": "rate of hemorrhagic blood clearance compared with normal clearance rates in clinical practice", "setting": "[3]; 100 μl of 6% urea", "value": "significantly accelerated"},
      {"measurement": "patients with clearance of vitreous hemorrhage sufficient to treat the retina with photocoagulation", "setting": "[3]; single intravitreal 100 μl of 6% urea, 0.9% sodium chloride, seven patients", "value": "All seven"},
      {"measurement": "decrease in surgical time relative to patients who did not receive urea", "setting": "[4]; 100 μl of 6% urea one week prior to vitrectomy", "value": 70, "unit": "%"},
      {"measurement": "vitreous liquefaction and collapse", "setting": "[4]; by one week after single intravitreal 100 μl of 6% urea, five patients", "value": "complete vitreous liquefaction and collapse"},
      {"measurement": "time to complete vitreous liquefaction and collapse after administration", "setting": "[5]; 50 μl of 3% urea", "value": "2-4 weeks"},
      {"measurement": "patients with complete vitreous liquefaction and collapse", "setting": "[5]; single intravitreal 50 μl of 3% urea, 0.9% sodium chloride", "value": 69, "unit": "patients"},
      {"measurement": "patients with increase of at least 3 lines of best corrected visual acuity measured by ETDRS charts", "setting": "[6]; single intravitreal 50 μl of 1.5%, 3.0% or 6.0% urea, groups pooled", "value": "Forty-seven"},
      {"measurement": "average improvement in the patient's visual field", "setting": "[6]; urea-treated patients", "value": 10, "unit": "degrees"},
      {"measurement": "patients whose vision improved from No light perception to light perception", "setting": "[7]; 50 μl of 0.2-6.0% urea", "value": "Six"},
      {"measurement": "patients whose vision improved from light perception to 20/600 and 20/800 vision", "setting": "[7]; 50 μl of 0.2-6.0% urea", "value": 2, "unit": "patients"},
      {"measurement": "patients whose vision improved from light perception to count fingers at 12 inches", "setting": "[7]; 50 μl of 0.2-6.0% urea", "value": 2, "unit": "patients"},
      {"measurement": "patients whose vision improved from no light perception to 20/400 and 20/800 vision", "setting": "[7]; 50 μl of 0.2-6.0% urea", "value": 2, "unit": "patients"},
      {"measurement": "patients with increase of best corrected visual acuity measured by ETDRS charts", "setting": "[7]; single intravitreal 50 μl of 0.2%, 1.5%, 3.0% or 6.0% urea", "value": "Forty-three"},
      {"measurement": "average visual acuity after treatment", "setting": "[8]; from an average of Count Fingers at 12 inches, 100 μl of 6% urea", "value": "20/200"},
      {"measurement": "patients reporting a significant improvement in visual acuity after treatment", "setting": "[8]; single intravitreal 100 μl of 6% urea, three patients", "value": "All three"},
      {"measurement": "liquefaction of the vitreous body and breakdown of hyaluronic acid of the vitreous", "setting": "[9]; after injection of urea into the vitreous", "value": "within several days"},
      {"measurement": "disinsertion of the posterior vitreous", "setting": "[9]; patients, slit lamp biomicroscopy, after urea treatment", "value": "observed"},
      {"measurement": "disinsertion of the posterior vitreous", "setting": "[10]", "value": "observed"},
      {"measurement": "pH", "setting": "[11]", "value": 7.2},
      {"measurement": "solubility", "setting": "[12]; in chloroform or ether", "value": "practically insoluble"},
      {"measurement": "solubility", "setting": "[12]; in water, ethanol, methanol and glycerol", "value": "very soluble"},
      {"measurement": "stability", "setting": "[13]; aqueous urea solutions, develop an odor of ammonia", "value": "gradually degrade"},
      {"measurement": "stability", "setting": "[13]; stored under dry conditions at room temperature", "value": "stable"}
    ]}
  ]
}
